Holding throughout (type): functional
For experiment [1], the system named is Klebsiella pneumoniae. The experiment can be described thus: Antibacterial activity against Klebsiella pneumoniae ATCC 4352 by disk diffusion method. (In general: A growth-free zone around the sample is the usual read-out of agar diffusion tests.)
For experiment [2], the system named is Mycobacterium tuberculosis. Put plainly: Antitubercular activity against Mycobacterium tuberculosis H37Rv after 21 days by broth microdilution method. The following applies: 504 h. (Dilution methods test growth across graded concentrations, often in twofold steps.)
Experiment [3] deals with Klebsiella pneumoniae. The experiment can be described thus: Antibacterial activity against Klebsiella pneumoniae ATCC 4352 by tube dilution method.
Experiment [4] has as its system Pseudomonas aeruginosa. The experiment can be described thus: Antibacterial activity against Pseudomonas aeruginosa ATCC 9027 by disk diffusion method.
In experiment [5] the test system is Escherichia coli. The experiment can be described thus: Antibacterial activity against Escherichia coli ATCC 8739 by disk diffusion method.
The subject of experiment [6] is Proteus mirabilis. The experiment can be described thus: Antibacterial activity against Proteus mirabilis ATCC 14153 by disk diffusion method.
For experiment [7], the system named is Streptococcus. Put plainly: Antibacterial activity against beta-haemolyticus Streptococcus isolate by disk diffusion method.
In experiment [8] the test system is Pseudomonas aeruginosa. The experiment can be described thus: Antibacterial activity against Pseudomonas aeruginosa ATCC 9027 by tube dilution method.
Experiment [9] deals with Enterococcus faecalis. The experiment can be described thus: Antibacterial activity against Enterococcus faecalis ATCC 29212 by disk diffusion method.
Experiment [10] concerns Staphylococcus aureus. The experiment can be described thus: Antibacterial activity against Staphylococcus aureus ATCC 6538 by disk diffusion method.
Experiment [11] relates to Streptococcus. The experiment can be described thus: Antibacterial activity against beta-haemolyticus Streptococcus isolate by tube dilution method.
Experiment [12] concerns Escherichia coli. The experiment can be described thus: Antibacterial activity against Escherichia coli ATCC 8739 by tube dilution method.
In experiment [13] the test system is Staphylococcus aureus. Put plainly: Antibacterial activity against Staphylococcus aureus ATCC 6538 by tube dilution method.
For experiment [14], the system named is Proteus mirabilis. Put plainly: Antibacterial activity against Proteus mirabilis ATCC 14153 by tube dilution method.
Experiment [15] relates to Enterococcus faecalis. The experiment can be described thus: Antibacterial activity against Enterococcus faecalis ATCC 29212 by tube dilution method.

SMILES strings stand for the structures. Converted amounts (≈) assume the structure as drawn. The source made the active and inactive calls. The rule behind the calls is not given here. Bounds are passed on as bounds.

Turning to `Cc1ccc2c(ccc3cc(C(C)C)c(O)cc32)c1C`, the “inhibition zone (IZ)” value in experiment [1], in experiment [4] and in [7] was above 7 mm in each case. Also, the MIC in [2] stood at 0.46 µg/mL (≈ 1.74 µM); in experiment [3] it was 15.6 µg/mL (≈ 59 µM); in [8], 15.6 µg/mL (≈ 59 µM); in experiment [11], 2 µg/mL (≈ 7.57 µM). Besides, the result in [5], in [6], in experiment [9] and in experiment [10] was inactive.
Turning to `COC1=C(C(C)C)C(=O)C2=C(C1=O)[C@@]1(C)CCCC(C)(C)C1=C[C@H]2O`, the MIC in [2] was 1.2 µg/mL (≈ 3.48 µM).
As for `COC1=C(C(C)C)C(=O)C2=C(C1=O)[C@@]1(C)CCCC(C)(C)C1=C[C@H]2OC(C)=O`, the “inhibition zone (IZ)” value in [1] was above 7 mm. Besides, the MIC turned out to be 0.89 µg/mL (≈ 2.3 µM) in experiment [2] and 7.2 µg/mL (≈ 18.6 µM) in experiment [3]. Further, the result in [4], in experiment [5], in [6], in experiment [7], in [9] and in experiment [10] was inactive.
As to `Nc1ccc(C(=O)O)c(O)c1` [AMINOSALICYLIC ACID], the MIC in experiment [2] stood at 5 µg/mL (≈ 32.7 µM).
As for `Cc1c(O)cc2c3c(ccc2c1C)C=C(C(C)C)C(=O)C3=O` [DEMETHYLMULTIORTHOQUINONE], the outcome in experiment [1], in experiment [4], in [6], in experiment [7], in [9] and in [10] was inactive. Besides, the values for the MIC in [2] and in experiment [12] were 1.2 µg/mL (≈ 4.08 µM) and 4.6 µg/mL (≈ 15.6 µM), respectively. Also, in experiment [5], the “inhibition zone (IZ)” value is above 7 mm.
In [2], `CC[C@@H](CO)NCCN[C@@H](CC)CO` [ETHAMBUTOL] registered an MIC of 5 µg/mL (≈ 24.5 µM).
In experiment [2], `CCc1cc(C(N)=S)ccn1` [ETHIONAMIDE] had an MIC of 5 µg/mL (≈ 30.1 µM).
On the same count and under the same terms, the same measure for `NNC(=O)c1ccncc1` [ISONIAZID]: 0.2 µg/mL (≈ 1.46 µM).
Consider `NC[C@H]1O[C@H](O[C@H]2[C@H](O)[C@@H](O[C@H]3O[C@H](CO)[C@@H](O)[C@H](N)[C@H]3O)[C@H](N)C[C@@H]2N)[C@H](O)[C@@H](O)[C@@H]1O` [KANAMYCIN], for which 5 µg/mL (≈ 10.3 µM) was the least that counted as inhibitory in [2] (MIC).
In the case of `COc1cc2c(ccc3c(C)c(C)ccc32)cc1C(C)C` [MULTICAULIN], the result in [1], in [4] and in experiment [9] was inactive. Besides, the MIC in experiment [13] was 0.2 µg/mL (≈ 0.718 µM); in experiment [2], 5.6 µg/mL (≈ 20.1 µM); in experiment [12], 0.7 µg/mL (≈ 2.51 µM); in experiment [14] it was 1.4 µg/mL (≈ 5.03 µM); in experiment [11], 0.2 µg/mL (≈ 0.718 µM). Moreover, the “inhibition zone (IZ)” value in experiment [5], in [6], in experiment [7] and in experiment [10] was above 7 mm each time.
On to `COc1cc2c3c(ccc2c(C)c1C)C=C(C(C)C)C(=O)C3=O` [MULTIORTHOQUINONE], for which the outcome in experiment [1], in experiment [5] and in experiment [6] was inactive. Moreover, the minimal inhibitory concentration (MIC) in experiment [13] stood at 0.1 µg/mL (≈ 0.324 µM); in [2], 2 µg/mL (≈ 6.49 µM); in experiment [15], 2 µg/mL (≈ 6.49 µM); in [8] it was 0.5 µg/mL (≈ 1.62 µM); in experiment [11] it was 0.1 µg/mL (≈ 0.324 µM). For the same molecule, the “inhibition zone (IZ)” value in [4], in experiment [7], in [9] and in [10] was above 7 mm each time.
In [2], `CO[C@H]1/C=C/O[C@@]2(C)Oc3c(C)c(O)c4c(O)c(c(/C=N/N5CCN(C)CC5)c(O)c4c3C2=O)NC(=O)/C(C)=C\C=C\[C@H](C)[C@H](O)[C@@H](C)[C@@H](O)[C@@H](C)[C@H](OC(C)=O)[C@@H]1C` [RIFAMPIN] yielded a minimal inhibitory concentration (MIC) of 0.5 µg/mL (≈ 0.608 µM).
As to `C=C[C@]1(C)C=C2[C@@H](O)C[C@H]3C(C)(C)C(=O)CC[C@]3(C)[C@]2(O)C(=O)C1` [SALVIPIMARONE], the result in experiment [1], in experiment [4], in experiment [5], in experiment [7], in experiment [9] and in experiment [10] was inactive. The figures for the MIC in experiment [2], in experiment [15] and in experiment [14] were 7.3 µg/mL (≈ 22 µM), 3.6 µg/mL (≈ 10.8 µM) and 3.6 µg/mL (≈ 10.8 µM), respectively. The “inhibition zone (IZ)” value in [6] is above 7 mm.
Regarding `CN[C@@H]1[C@H](O[C@H]2[C@H](O[C@H]3[C@H](O)[C@@H](O)[C@H](N=C(N)N)[C@@H](O)[C@@H]3N=C(N)N)O[C@@H](C)[C@]2(O)C=O)O[C@@H](CO)[C@H](O)[C@H]1O` [STREPTOMYCIN], the minimal inhibitory concentration (MIC) in [2] was found to be 2 µg/mL (≈ 3.44 µM).

A word on the MIC: it is the lowest concentration that inhibits growth of the organism. Read a low MIC as inhibition by little substance.
